Assays:
[1] = biological target: T1, ChTL activity of the purified human 20S proteasome (Homo sapiens, UniProt P28074); assay: Purified 20S proteasome activity assay, ChTL activity (Suc-LLVY-AMC); type: biochemical; conditions: for inhibitory activity against the 20S proteasome (in words): ChTL activity, figure 2b
T1 construct: The human erythrocyte 20S proteasome was obtained from Boston Biochem; purchased Boston Biochem; host or cells: human erythrocytes
Description: For the proteasome inhibition assays, the peptide-7-amino-4-methylcoumarin (AMC) substrates (25 µM Suc-LLVY-AMC) and inhibitors were added to assay solutions. The assay buffer had the following composition: 25 mM HEPES, 0.5 mM EDTA, 0.03% SDS (pH 8.0). Human erythrocyte 20S proteasome (100 ng) was added to the assay buffer containing substrates and inhibitors at a final volume of 100 µl. After incubation at 37°C for 1 h, the fluorescence emission spectrum at 450 nm (λex, 365 nm) was measured by using a fluorescence microplate reader. The inhibition against PGPH activity of the 20S proteasome was determined as described above except that Z-LLE-AMC was used as the substrate. For the assay of inhibition against the trypsin-like activity of complex 2, the SDS was omitted from the assay buffer and Boc-LRR-AMC was used as the substrate. The assay of inhibition against the trypsin-like activity of complexes 1 and 3 was carried out by the Screening Committee of Anticancer Drugs (Cancer Chemotherapy Center, Japanese Foundation for Cancer Research).
[picture] For the proteasome inhibition assays, the peptide-AMC substrates (25 µM Suc-LLVY-AMC) and inhibitors were added to assay solutions. The assay buffer had the following composition: 25 mM HEPES, 0.5 mM EDTA, 0.03% SDS (pH 8.0). Human erythrocyte 20S proteasome (100 ng) was added to the assay buffer containing substrates and inhibitors at a final volume of 100 µL. After incubation at 37°C for 1 h, the fluorescence emission spectrum at 450 nm (λex, 365 nm) was measured by using a fluorescence microplate reader.

[2] = biological target: T2, ChTL activity of the 20S proteasome from cell lysates (colon26) (Mus musculus, UniProt O55234); assay: Inhibition against chymotrypsin-like activity in whole-cell lysates; type: biochemical; conditions: whole-cell lysate, figure S3
T2 construct: endogenous in cells; host or cells: colon26 whole-cell lysate
Description: Cultures of colon26 were grown at 37°C in RPMI1640 supplemented with 10% fetal bovine serum. Whole-cell lysates were prepared according to the method in the literature.
(§1) For the determination of inhibitory activity in whole-cell lysates, peptide-AMC substrates (50 µM Suc-LLVY-AMC), inhibitors and the whole-cell lysate (15 µg) were added to the assay solutions. The following assay buffer was used: 25 mM HEPES, 0.5 mM EDTA, 0.03% SDS (pH 8.0). After incubation at 37°C for 4 h, the fluorescence emission was measured at 450 nm (λex = 365 nm) by using a fluorescence microplate reader.
as §1, with “the whole cell lysate,” for “whole-cell lysates,”, “inhibitors,” for “inhibitors”, “whole cell” for “whole-cell”, “37 °C” for “37°C”

[3] = purified 20S proteasome, figure S2

SMILES	inhibitory activity against the 20S proteasome (in words) [1, 3]	remaining activity at 10 µM ([1]; at 10 µM, purified 20S proteasome, figure S2, read-out: residual activity of ChTL) [%]	IC50 ([1]; purified human erythrocyte 20S proteasome 100 ng, 25 µM Suc-LLVY-AMC, 37°C 1 h, mean ± s.d. (n = 3)) [µM]	inhibition in the cell-free system (in words) [2]
NCCNCc1c2ccccc2cc2ccccc12 [N-9-anthracenylmethyl-1,2-ethanediamine, reference compound]	weak inhibitory activity	43	~10	no inhibition
NCCN.[Cl-].[Cl-].[Pt+2].c1ccncc1.c1ccncc1 [Pt(py)2(ethylenediamine), (ethylenediamine)bispyridine platinum(II) chloride, reference compound]	no inhibitory activity			

From PMC7481701 (Royal Society Open Science, 2020)
